Measurements reported in patent publication US10189813B2, “Formylated N-heterocyclic derivatives as FGFR4 inhibitors” (NOVARTIS AG, priority 2015, dated 2019).
pIC50: −log10 of the molar value. Like-named read-outs stand apart in the source and are kept apart here.

Assays:
[1] = target: T1, FGFR4 (GST-FGFR4(388-802)) (Homo sapiens, UniProt P22455); assay: In-vitro biochemical kinase assay for FGFR4 (Caliper mobility shift); conditions: 60 minutes at 30° C.
T1 construct: GST-FGFR4(388-802); GST (N); made in house; host or cells: insect cells
T1 sequence (P22455 388-802): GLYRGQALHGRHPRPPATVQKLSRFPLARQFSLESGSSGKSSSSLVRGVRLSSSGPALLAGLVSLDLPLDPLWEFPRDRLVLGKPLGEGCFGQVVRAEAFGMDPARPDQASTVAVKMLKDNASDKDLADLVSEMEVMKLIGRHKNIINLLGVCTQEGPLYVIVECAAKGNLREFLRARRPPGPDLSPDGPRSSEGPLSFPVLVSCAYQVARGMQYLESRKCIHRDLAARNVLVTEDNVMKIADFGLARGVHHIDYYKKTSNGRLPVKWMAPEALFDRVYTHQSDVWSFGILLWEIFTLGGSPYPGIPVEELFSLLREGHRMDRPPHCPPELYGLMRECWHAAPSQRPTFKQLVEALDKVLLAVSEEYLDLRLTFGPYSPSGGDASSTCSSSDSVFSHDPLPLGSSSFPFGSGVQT
Method: In-Vitro Biochemical Kinase Assays for FGFR4
All assays were performed in 384 well microtiter plates. Each assay plate contained 8-point serial dilutions for 40 test compounds, as well as four 8-point serial dilutions of staurosporine as reference compound, plus 16 high and 16 low controls.
(§1) Liquid handling and incubation steps were done on an Innovadyne Nanodrop Express equipped with a robotic arm (Thermo CatX, Caliper Twister II) and an incubator (Liconic STX40, Thermo Cytomat 2C450). The assay plates were prepared by addition of 50 nI per well of compound solution in 90% DMSO. […] Kinase reactions were incubated at 30° C. for 60 minutes and subsequently terminated by addition of 16 μl per well of stop solution (100 mM HEPES pH 7.5, 5% DMSO, 0.1% Caliper coating reagent, 10 mM EDTA, and 0.015% Brij35). Plates with terminated kinase reactions were transferred to the Caliper LC3000 workstations for reading. Phosphorylated and unphosphorylated peptides were separated using the Caliper microfluidic mobility shift technology. Briefly, samples from terminated kinase reactions were applied to the chip. Analytes are transported through the chip by constant buffer flow and the migration of the substrate peptide is monitored by the fluorescence signal of its label. Phosphorylated peptide (product) and unphosphorylated peptide (substrate) are separated in an electric field by their charge/mass ratio. Kinase activities were calculated from the amounts of formed phospho-peptide. IC50 values were determined from percent inhibition values at different compound concentrations by non-linear regression analysis.
Preparation of Compound Dilutions
Test compounds were dissolved in DMSO (10 mM) and transferred into 1.4 mL flat bottom or V-shaped Matrix tubes carrying a unique 2D matrix. The stock solutions were stored at […] if not used immediately. For the test procedure the vials were defrosted and identified by a scanner whereby a working sheet was generated that guided the subsequent working steps.
Compound dilutions were made in 96 well plates. This format enabled the assay of maximally 40 individual test compounds at 8 concentrations (single points) including 4 reference compounds. The dilution protocol included the production of “pre-dilution plates”, “master plates” and “assay plates”.
96 polypropylene well plates were used as pre-dilution plates. A total of 4 pre-dilution plates were prepared including 10 test compounds each on the plate positions A1-A10, one standard compound at A11 and one DMSO control at A12. All dilution steps were done on a HamiltonSTAR robot.
These plates were used directly for the assay which was performed in a total volume of 9.05 μL.

FGFR1 (407-822) = target: T2, FGFR1 (407-822) (Homo sapiens, UniProt P11362); assay: In vitro biochemical assay for FGFR1
T2 construct: FGFR1 (407-822)
T2 sequence (P11362 407-822): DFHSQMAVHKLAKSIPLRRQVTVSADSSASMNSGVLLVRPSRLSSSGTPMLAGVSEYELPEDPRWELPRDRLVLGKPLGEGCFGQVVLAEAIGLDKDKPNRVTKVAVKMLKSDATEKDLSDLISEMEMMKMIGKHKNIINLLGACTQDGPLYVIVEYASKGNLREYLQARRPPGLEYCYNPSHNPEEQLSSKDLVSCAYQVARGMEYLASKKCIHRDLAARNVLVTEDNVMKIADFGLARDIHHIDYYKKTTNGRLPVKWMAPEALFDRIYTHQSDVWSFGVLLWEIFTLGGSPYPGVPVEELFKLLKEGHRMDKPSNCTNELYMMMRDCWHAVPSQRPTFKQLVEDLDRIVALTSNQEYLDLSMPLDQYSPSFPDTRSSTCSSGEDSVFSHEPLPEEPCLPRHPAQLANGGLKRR
Method: as §1
(§2) In vitro biochemical assays for FGFR1 (407-822), FGFR2 (406-821) and FGFR3 (411-806) were conducted in a similar manner to the in vitro biochemical assay for FGFR4 described above, using the indicated portions of the kinase domains. The following examples all produced IC50 values >10000 nM in the biochemical FGFR1, FGFR2 and FGFR3 assays: 2, 3, 4, 11, 13, 16, 17, 18, 20, 28, 30.

FGFR2 (406-821) = target: T3, FGFR2 (406-821) (Homo sapiens, UniProt P21802); assay: In vitro biochemical assay for FGFR2
T3 construct: FGFR2 (406-821)
T3 sequence (P21802 406-821): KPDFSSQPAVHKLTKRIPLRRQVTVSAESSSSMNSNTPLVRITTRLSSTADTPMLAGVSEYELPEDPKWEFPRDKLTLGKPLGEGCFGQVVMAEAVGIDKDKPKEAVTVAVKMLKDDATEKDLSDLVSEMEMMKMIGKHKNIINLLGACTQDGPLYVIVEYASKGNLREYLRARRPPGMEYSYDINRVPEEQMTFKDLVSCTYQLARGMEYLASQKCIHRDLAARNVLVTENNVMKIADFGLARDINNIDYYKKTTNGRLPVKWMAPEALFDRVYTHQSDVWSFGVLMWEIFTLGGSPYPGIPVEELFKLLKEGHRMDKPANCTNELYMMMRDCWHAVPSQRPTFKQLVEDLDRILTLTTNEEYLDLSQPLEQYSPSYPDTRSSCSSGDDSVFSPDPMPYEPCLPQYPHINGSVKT
Method: as §1, §2

FGFR3 (411-806) = target: T4, FGFR3 (411-806) (Homo sapiens, UniProt P22607); assay: In vitro biochemical assay for FGFR3
T4 construct: FGFR3 (411-806)
T4 sequence (P22607 411-806): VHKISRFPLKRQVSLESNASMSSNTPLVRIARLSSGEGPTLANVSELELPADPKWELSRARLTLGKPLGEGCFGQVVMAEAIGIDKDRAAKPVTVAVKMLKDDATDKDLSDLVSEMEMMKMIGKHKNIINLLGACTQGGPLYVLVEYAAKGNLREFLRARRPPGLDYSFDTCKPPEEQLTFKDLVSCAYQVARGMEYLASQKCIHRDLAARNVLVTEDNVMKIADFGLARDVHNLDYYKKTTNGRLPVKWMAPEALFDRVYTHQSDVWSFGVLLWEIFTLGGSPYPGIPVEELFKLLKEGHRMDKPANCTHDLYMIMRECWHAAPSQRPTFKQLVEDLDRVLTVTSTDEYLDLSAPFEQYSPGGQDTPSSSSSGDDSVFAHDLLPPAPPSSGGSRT
Method: as §1, §2

[2] = target: BaF3-Tel-FGFR4 cells (TEL fused to cytoplasmic domain of FGFR4) (Homo sapiens, UniProt P22455); assay: In vitro cellular kinase assay for FGFR4 (BaF3-Tel-FGFR4, MSD capture ELISA of tyrosine phosphorylation); conditions: 1 hour incubation
BaF3-Tel-FGFR4 cells (TEL fused to cytoplasmic domain of FGFR4), sequence (P22455 with tags, fused parts or gaps): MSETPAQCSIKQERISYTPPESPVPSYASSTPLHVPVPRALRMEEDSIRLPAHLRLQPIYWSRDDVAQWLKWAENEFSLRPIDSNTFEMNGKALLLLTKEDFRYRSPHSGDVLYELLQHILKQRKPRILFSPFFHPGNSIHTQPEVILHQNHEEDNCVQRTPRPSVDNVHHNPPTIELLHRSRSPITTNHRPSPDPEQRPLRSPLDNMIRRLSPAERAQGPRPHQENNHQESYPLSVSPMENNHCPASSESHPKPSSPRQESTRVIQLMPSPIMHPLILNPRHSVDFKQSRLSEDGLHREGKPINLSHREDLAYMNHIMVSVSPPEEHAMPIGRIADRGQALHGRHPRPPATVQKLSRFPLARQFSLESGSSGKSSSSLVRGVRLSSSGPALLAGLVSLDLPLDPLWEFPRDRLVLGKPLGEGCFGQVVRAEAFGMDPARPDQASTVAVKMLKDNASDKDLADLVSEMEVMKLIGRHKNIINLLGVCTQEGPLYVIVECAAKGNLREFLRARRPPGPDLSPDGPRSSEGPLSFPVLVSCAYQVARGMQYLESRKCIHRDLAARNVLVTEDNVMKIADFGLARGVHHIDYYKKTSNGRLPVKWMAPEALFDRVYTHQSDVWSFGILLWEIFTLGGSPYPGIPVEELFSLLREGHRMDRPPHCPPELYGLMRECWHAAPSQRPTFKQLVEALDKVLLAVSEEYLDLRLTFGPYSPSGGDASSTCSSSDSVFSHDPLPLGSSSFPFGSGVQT

[3] = tested on: HuH-7 hepatocellular carcinoma cells; assay: CellTiter Glo (CTG) proliferation/viability assay; format: cell-based; conditions: HuH-7 cells, 3 days, half-maximal growth inhibition (GI50), read-out: HUH7 proliferation CTG
Method: CellTiter Glo (CTG) Assay:
The functional effect of compounds on cell proliferation is assessed using HuH-7 hepatocellular carcinoma cells obtained from the Japanese Collection of Research Bioresources Cell Bank (Cat# JCRB0403) and cultured in the vendor-recommended medium (DMEM high glucose (Amimed Cat#1-26F01-I), 10% foetal calf serum (Invitrogen Cat#16140-071), 1 mM sodium pyruvate (Amimed Cat#5-60F00-H), 1× Penicillin/Streptomycin (Amimed Cat#4-01F00-H)) at 37° C. in a humidified 5% CO2 incubator. Compound-mediated suppression of cell proliferation/viability is assessed by quantification of cellular ATP levels using the CellTiter-Glo (CTG) reagent (Promega, Cat# G7573). Briefly, cells are seeded at 3′000 cells/well/80 μl fresh medium into tissue-culture-treated 96-well plates (Costar Cat#3904), followed by addition of 20 μl medium containing compound dilutions at 5-fold their final intended concentration. Dose-response effects are assessed by 3-fold serial dilutions of the test compound, starting at 10 μM. Following incubation of the cells for 3 days at 37° C. and 5% CO2, the effect of inhibitors on cell viability is quantified following addition of 50 μl CTG and luminescence measurement (integration time: 500 ms) as per vendor manual, using a correspondingly equipped multi-mode plate reader (M200Pro, TECAN, Switzerland). For data analysis, the assay background value determined in wells containing medium, but no cells, is subtracted from all data points. To enable differentiation of cytotoxic from cytostatic compounds, the number of viable cells is assessed relative to that observed at the time of compound addition using a separate cell plate (day 0). The effect of a particular test compound concentration on cell proliferation/viability is expressed as percentage of the background- and day 0-corrected luminescence reading obtained for cells treated with vehicle only (DMSO, 0.1% f.c.), which is set as 100%, whereas the luminescence reading for wells containing medium only, but no cells, is set as −100%. Compound concentrations leading to half-maximal growth inhibition (GI50) are determined using standard four parameter curve fitting (XLfit 5.2., IDBS, UK).

pIC50 [1] | pIC50 (FGFR1 (407-822)) | pIC50 (FGFR2 (406-821)) | pIC50 (FGFR3 (411-806)) | pIC50 [2] | pIC50 ([3]; Homo sapiens, Huh-7, 72 h) | pIC50 [3] | SMILES
7.11 | – | – | – | – | – | – | CN(C(=O)Nc1ccc(C#N)cn1)c1ccc(CN2CCCC2=O)c(C=O)n1 [Example 19, 3-(5-cyanopyridin-2-yl)-1-(6-formyl-5-((2-oxopyrrolidin-1-yl)methyl)pyridin-2-yl)-1-methylurea]
– | < 5.00 | < 5.00 | < 5.00 | – | – | – | COCCNc1cc(NC(=O)N(C)c2cccc(C=O)n2)ncc1C#N [Example 2, 3-(5-cyano-4-((2-methoxyethyl)amino)pyridin-2-yl)-1-(6-formylpyridin-2-yl)-1-methylurea]
8.80 | – | – | – | 6.13 | – | – | CC(C)Oc1cc(NC(=O)N(C)c2ccc(C(=O)O)c(C=O)n2)ncc1C#N [Example 8, 6-(3-(5-cyano-4-isopropoxypyridin-2-yl)-1-methylureido)-2-formylnicotinic acid]
8.33 | – | – | – | 6.85 | – | – | COCCNc1cc(NC(=O)N(C[C@@H]2CCOC2)c2cccc(C=O)n2)ncc1C#N (single isomer, unassigned) [Example 6]
7.18 | – | – | – | 6.63 | – | – | COCCNc1cc(NC(=O)N(CC2CCOC2)c2ccc(CO)c(C=O)n2)ncc1C#N (racemic) [Example 5, 3-(5-cyano-4-((2-methoxyethyl)amino)pyridin-2-yl)-1-(6-formyl-5-(hydroxymethyl)pyridin-2-yl)-1-((tetrahydrofuran-3-yl)methyl)urea]
8.44 | – | – | – | – | – | – | CC(C)Nc1cc(NC(=O)N(C)c2ccc(-c3cnn(C)c3)c(C=O)n2)ncc1C#N [Example 14, 3-(5-cyano-4-(isopropylamino)pyridin-2-yl)-1-(6-formyl-5-(1-methyl-1H-pyrazol-4-yl)pyridin-2-yl)-1-methylurea]
6.47 | – | – | – | 6.25 | < 5.52 | – | COCCNc1cc(Nc2nccn2-c2ccc(-c3cnn(C)c3)c(C=O)n2)ncc1C(F)(F)F [Example 27, 6-(2-((4-((2-methoxyethyl)amino)-5-(trifluoromethyl)pyridin-2-yl)amino)-1H-imidazol-1-yl)-3-(1-methyl-1H-pyrazol-4-yl)picolinaldehyde]
6.60 | – | – | – | < 5.52 | < 5.52 | – | CC(C)Oc1cc(NC(=O)N(C)c2ccc(CN3CCCC3)c(C=O)n2)ncc1C#N [Example 29, 3-(5-cyano-4-isopropoxypyridin-2-yl)-1-(6-formyl-5-(pyrrolidin-1-ylmethyl)pyridin-2-yl)-1-methylurea]
7.77 | – | – | – | 6.30 | < 5.52 | – | COC1CCN(Cc2ccc(N(C)C(=O)Nc3cc(OC(C)C)c(C#N)cn3)nc2C=O)C1 (racemic) [Example 26, 3-(5-cyano-4-isopropoxypyridin-2-yl)-1-(6-formyl-5-((3-methoxypyrrolidin-1-yl)methyl)pyridin-2-yl)-1-methylurea]
8.29 | – | – | – | 6.65 | – | – | COCCNc1cc(NC(=O)N(C[C@H]2CCOC2)c2cccc(C=O)n2)ncc1C#N (single isomer, unassigned) [Example 7]
6.48 | – | – | – | – | – | – | N#Cc1ccc(Nc2ccccc2-c2cccc(C=O)n2)nc1 [Example 1, 6-((2-(6-formylpyridin-2-yl)phenyl)amino)nicotinonitrile]
– | < 5.00 | < 5.00 | < 5.00 | – | – | – | COCCNc1cc(NC(=O)N(CCOC)c2cccc(C=O)n2)ncc1C#N [Example 3, 3-(5-cyano-4-((2-methoxyethyl)amino)pyridin-2-yl)-1-(6-formylpyridin-2-yl)-1-(2-methoxyethyl)urea]
8.25 | < 5.00 | < 5.00 | < 5.00 | 7.77 | – | – | CCN(C(=O)Nc1cc(NC(C)C)c(C#N)cn1)c1ccc(-c2cnn(C)c2)c(C=O)n1 [Example 11, 3-(5-cyano-4-(isopropylamino)pyridin-2-yl)-1-ethyl-1-(6-formyl-5-(1-methyl-1H-pyrazol-4-yl)pyridin-2-yl)urea]
9.15 | – | – | – | 8.06 | 6.93 | – | CC(C)Oc1cc(NC(=O)N(C)c2ccc(CN3CCCC3=O)c(C=O)n2)ncc1C#N [Example 23, 3-(5-cyano-4-isopropoxypyridin-2-yl)-1-(6-formyl-5-((2-oxopyrrolidin-1-yl)methyl)pyridin-2-yl)-1-methylurea]
8.24 | – | – | – | 7.34 | < 5.52 | 5.74 | CN(C(=O)Nc1cc(NCC(C)(C)O)c(C#N)cn1)c1ccc(-c2cnn(C)c2)c(C=O)n1 [Example 22, 3-(5-cyano-4-((2-hydroxy-2-methylpropyl)amino)pyridin-2-yl)-1-(6-formyl-5-(1-methyl-1H-pyrazol-4-yl)pyridin-2-yl)-1-methylurea]
8.07 | – | – | – | 7.48 | 5.67 | – | CCN(C(=O)Nc1cc(OC(C)C)c(C#N)cn1)c1ccc(-c2cnn(C)c2)c(C=O)n1 [Example 12, 3-(5-cyano-4-isopropoxypyridin-2-yl)-1-ethyl-1-(6-formyl-5-(1-methyl-1H-pyrazol-4-yl)pyridin-2-yl)urea]
8.72 | < 5.00 | < 5.00 | < 5.00 | 6.57 | – | – | COCCNc1cc(NC(=O)N(CC2CCOC2)c2cccc(C=O)n2)ncc1C#N (racemic) [Example 4, 3-(5-cyano-4-((2-methoxyethyl)amino)pyridin-2-yl)-1-(6-formylpyridin-2-yl)-1-((tetrahydrofuran-3-yl)methyl)urea]
8.32 | – | – | – | 8.16 | 6.06 | – | CC(C)Oc1cc(NC(=O)N(C)c2ccc(CN3CCN(C)CC3=O)c(C=O)n2)ncc1C#N [Example 21, 3-(5-cyano-4-isopropoxypyridin-2-yl)-1-(6-formyl-5-((4-methyl-2-oxopiperazin-1-yl)methyl)pyridin-2-yl)-1-methylurea]
8.20 | – | – | – | – | – | – | CC(C)Oc1cc(NC(=O)N(C)c2ccc(-c3cnn(C)c3)c(C=O)n2)ncc1C#N [Example 25, 3-(5-cyano-4-isopropoxypyridin-2-yl)-1-(6-formyl-5-(1-methyl-1H-pyrazol-4-yl)pyridin-2-yl)-1-methylurea]
